The source of these data is article PMC6754442, “Structure of Csx1-cOA4 complex reveals the basis of RNA decay in Type III-B CRISPR-Cas” (Nature Communications, 2019).

The target of assay [1] is T1, SisCsx1 (Saccharolobus islandicus, UniProt F0NE21).
T1 construct: gene SiRe_0884; full-length His-tagged, expressed from pSe-Csx1 in S. islandicus delta-csx1 delta-alpha; 300 kDa hexamer (trimer of dimers); CARF-HTH-HEPN; cOA4 site between two CARF domains; residues printed up to A454
T1 sequence (F0NE21 1-454): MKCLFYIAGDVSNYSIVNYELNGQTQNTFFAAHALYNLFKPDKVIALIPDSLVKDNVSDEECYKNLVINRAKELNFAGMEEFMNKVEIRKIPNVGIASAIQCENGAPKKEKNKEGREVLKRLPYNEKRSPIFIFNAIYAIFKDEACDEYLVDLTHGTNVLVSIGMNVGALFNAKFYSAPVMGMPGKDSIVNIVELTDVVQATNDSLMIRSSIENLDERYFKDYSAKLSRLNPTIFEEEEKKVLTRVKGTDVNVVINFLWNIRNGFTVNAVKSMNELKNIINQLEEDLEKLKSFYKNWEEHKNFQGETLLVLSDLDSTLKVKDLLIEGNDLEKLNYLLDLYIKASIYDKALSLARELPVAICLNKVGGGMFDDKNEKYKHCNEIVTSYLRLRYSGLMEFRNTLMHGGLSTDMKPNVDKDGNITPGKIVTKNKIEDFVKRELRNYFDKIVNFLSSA
The experiment in a line: native gel shift with […]-labelled cOA4. In kind it is binding. (In general: In EMSA bound probe runs differently from free probe, usually more slowly.)

Assay [2] has as its target T1, SisCsx1. As to the kind of experiment: fluorescent dark-RNA cleavage (activation dose response). In kind it is biochemical. The settings on record: 1-128 nM cOA4, 34 nM SisCsx1, 0.2 µM dark-RNA, 70 °C, 3 min; allosteric activator.
Assay [3] addresses Sulfolobus islandicus Csx1 (Sulfolobus islandicus). The experiment in a line: SEC-MALS; Superdex 200 Increase 10/300 GL, room temperature, 20 mM Tris pH 8.0, 300 mM NaCl; 50 ul injected at 1.9 mg/ml. In general terms: In gel filtration, larger molecules generally elute earlier.
Assay [4] deals with Sulfolobus islandicus Csx1 I383A/L390D/R391A mutant (Sulfolobus islandicus). The assay is described as above.

The term Kd denotes a measure of binding affinity in units of concentration. `Nc1ncnc2c1ncn2[C@@H]1O[C@@H]2COP(=O)(O)O[C@H]3[C@@H](O)[C@H](n4cnc5c(N)ncnc54)O[C@@H]3COP(=O)(O)O[C@H]3[C@@H](O)[C@H](n4cnc5c(N)ncnc54)O[C@@H]3COP(=O)(O)O[C@H]3[C@@H](O)[C@H](n4cnc5c(N)ncnc54)O[C@@H]3COP(=O)(O)O[C@H]2[C@H]1O` [cOA4]: the Kd in assay [1] is around 18 nM. Also, the “fluorescent dark-RNA cleavage (activation dose response)” value in assay [2] is listed as “cleavage of a ssRNA substrate was quantified in the presence of increasing amounts of cOA4”. A word on the stoichiometry N: it is a count of units in the complex or per binding partner. Sulfolobus islandicus Csx1 (enzyme) had a stoichiometry N in assay [3] of 6. Regarding “Sulfolobus islandicus Csx1 I383A/L390D/R391A mutant (enzyme)”, the stoichiometry N in assay [4] stood at 2.
